Legend:
Assay in all cases: Test E pre-/postemergence greenhouse test, plant response rating 0-100
Type in all cases: in vivo
Conditions in all cases: Postemergence, scale 0 to 100
[1] = system: Brazilian crabgrass (Digitaria horizontalis)
In short: (§1)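 Rated visually against controls 14-21 days after treatment on a 0-100 scale (100 = complete control). Pre- and postemergence sprays used a non-phytotoxic solvent mixture with surfactant. Preemergence seeds were in silt loam; postemergence plants were in peat-based medium at the 1- to 4-leaf stage (2-18 cm).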

[2] = system: Italian ryegrass (Lolium multiflorum)
In short: as §1

[3] = system: barnyardgrass (Echinochloa crus-galli)
In short: as §1

corn (Zea mays) = system: corn (Zea mays)
In short: as §1

[4] = system: dayflower (Virginia (VA) dayflower, Commelina virginica)
In short: as §1

[5] = system: fall panicum (Panicum dichotomiflorum)
In short: as §1

[6] = system: field bindweed (Convolvulus arvensis)
In short: as §1

[7] = system: hairy beggarticks (Bidens pilosa)
In short: as §1

[8] = system: sandbur (southern sandbur, Cenchrus echinatus)
In short: as §1

soybean (Glycine max) = system: soybean (Glycine max)
In short: as §1

[9] = system: waterhemp (common waterhemp, Amaranthus rudis)
In short: as §1

[10] = system: wild poinsettia (Euphorbia heterophylla)
In short: as §1

For `Cn1cc(C(=O)c2cccs2)c(-c2cc(Cl)cc(Cl)c2)n1` [Compound 17], the “Plant response rating, Crabgrass, Brazil” value ([1]; 31 g ai/ha) was 0, the “Plant response rating, Crabgrass, Brazil” value ([1]; 62 g ai/ha) was 0 and the “Plant response rating, Crabgrass, Brazil” value ([1]; 125 g ai/ha) was 0. For the same molecule, the “Plant response rating, Crabgrass, Brazil” value ([1]; 250 g ai/ha) was 0, the “Plant response rating, Crabgrass, Brazil” value ([1]; 500 g ai/ha) was 15 and the “Plant response rating, Ryegrass, Italian” value ([2]; 31 g ai/ha) was 0. The “Plant response rating, Ryegrass, Italian” value ([2]; 62 g ai/ha) was 0, the “Plant response rating, Ryegrass, Italian” value ([2]; 125 g ai/ha) was 0 and the “Plant response rating, Ryegrass, Italian” value ([2]; 250 g ai/ha) was 0. For the same molecule, the “Plant response rating, Ryegrass, Italian” value ([2]; 500 g ai/ha) was 0, the “Plant response rating, Barnyardgrass” value ([3]; 31 g ai/ha) was 0 and the “Plant response rating, Barnyardgrass” value ([3]; 62 g ai/ha) was 0. The “Plant response rating, Barnyardgrass” value ([3]; 125 g ai/ha) was 0, the “Plant response rating, Barnyardgrass” value ([3]; 250 g ai/ha) was 0 and the “Plant response rating, Barnyardgrass” value ([3]; 500 g ai/ha) was 20. The “Plant response rating, Corn” value (corn (Zea mays); 31 g ai/ha) was 0, the “Plant response rating, Corn” value (corn (Zea mays); 62 g ai/ha) was 0 and the “Plant response rating, Corn” value (corn (Zea mays); 125 g ai/ha) was 0. The “Plant response rating, Corn” value (corn (Zea mays); 250 g ai/ha) was 0, the “Plant response rating, Corn” value (corn (Zea mays); 500 g ai/ha) was 0 and the “Plant response rating, Dayflower, VA” value ([4]; 31 g ai/ha) was 0. For the same molecule, the “Plant response rating, Dayflower, VA” value ([4]; 62 g ai/ha) was 0, the “Plant response rating, Dayflower, VA” value ([4]; 125 g ai/ha) was 0 and the “Plant response rating, Dayflower, VA” value ([4]; 250 g ai/ha) was 0. The “Plant response rating, Dayflower, VA” value ([4]; 500 g ai/ha) was 0, the “Plant response rating, Panicum, Fall” value ([5]; 31 g ai/ha) was 0 and the “Plant response rating, Panicum, Fall” value ([5]; 62 g ai/ha) was 0. For the same molecule, the “Plant response rating, Panicum, Fall” value ([5]; 125 g ai/ha) was 0, the “Plant response rating, Panicum, Fall” value ([5]; 250 g ai/ha) was 0 and the “Plant response rating, Panicum, Fall” value ([5]; 500 g ai/ha) was 0. The “Plant response rating, Field Bindweed” value ([6]; 31 g ai/ha) was 0, the “Plant response rating, Field Bindweed” value ([6]; 62 g ai/ha) was 10 and the “Plant response rating, Field Bindweed” value ([6]; 125 g ai/ha) was 20. For the same molecule, the “Plant response rating, Field Bindweed” value ([6]; 250 g ai/ha) was 30, the “Plant response rating, Field Bindweed” value ([6]; 500 g ai/ha) was 30 and the “Plant response rating, Beggarticks” value ([7]; 31 g ai/ha) was 5. For the same molecule, the “Plant response rating, Beggarticks” value ([7]; 62 g ai/ha) was 25, the “Plant response rating, Beggarticks” value ([7]; 125 g ai/ha) was 35 and the “Plant response rating, Beggarticks” value ([7]; 250 g ai/ha) was 40. For the same molecule, the “Plant response rating, Beggarticks” value ([7]; 500 g ai/ha) was 60, the “Plant response rating, Sandbur” value ([8]; 31 g ai/ha) was 0 and the “Plant response rating, Sandbur” value ([8]; 62 g ai/ha) was 0. The “Plant response rating, Sandbur” value ([8]; 125 g ai/ha) was 0, the “Plant response rating, Sandbur” value ([8]; 250 g ai/ha) was 0 and the “Plant response rating, Sandbur” value ([8]; 500 g ai/ha) was 10. For the same molecule, the “Plant response rating, Soybean” value (soybean (Glycine max); 31 g ai/ha) was 0, the “Plant response rating, Soybean” value (soybean (Glycine max); 62 g ai/ha) was 0 and the “Plant response rating, Soybean” value (soybean (Glycine max); 125 g ai/ha) was 0. The “Plant response rating, Soybean” value (soybean (Glycine max); 250 g ai/ha) was 15, the “Plant response rating, Soybean” value (soybean (Glycine max); 500 g ai/ha) was 20 and the “Plant response rating, Waterhemp” value ([9]; 31 g ai/ha) was 50. The “Plant response rating, Waterhemp” value ([9]; 62 g ai/ha) was 80, the “Plant response rating, Waterhemp” value ([9]; 125 g ai/ha) was 85 and the “Plant response rating, Waterhemp” value ([9]; 250 g ai/ha) was 90. For the same molecule, the “Plant response rating, Waterhemp” value ([9]; 500 g ai/ha) was 95, the “Plant response rating, Poinsettia, Wild” value ([10]; 31 g ai/ha) was 0 and the “Plant response rating, Poinsettia, Wild” value ([10]; 62 g ai/ha) was 0. The “Plant response rating, Poinsettia, Wild” value ([10]; 125 g ai/ha) was 0, the “Plant response rating, Poinsettia, Wild” value ([10]; 250 g ai/ha) was 20 and the “Plant response rating, Poinsettia, Wild” value ([10]; 500 g ai/ha) was 30.

— patent US10167262B2, “Herbicidal substituted 3-arylpyrazoles” (FMC CORPORATION, priority 2014, dated 2019)
